# Test results reported in US8470862B2, “Treatment or prevention of hypotension and shock” (Recro Pharma, Inc., priority 1999, dated 2013).
# Tested on: anaesthetized rats
# Assay: Blood pressure and heart rate after slow intravenous administration in anaesthetized rats
# Type: in vivo
# Conditions: for HR (beats/min) / MAP (mmHg): mean ± SEM, n=6; for maximal change in HR / maximal change in MAP: percent change from baseline
# Experimental: The effects of 3-(1H-imidazol-4-ylmethyl)-indan-5-ol on blood pressure and heart rate after slow intravenous administration were studied in anaesthetized rats. Dexmedetomidine (Orion Corporation Orion Pharma, Finland), a specific α2-adrenoceptor agonist was studied as a reference compound.
# Male Spraque-Dawley rats (B&K, Sweden), weighing 290-400 g, were anaesthetized with sodium pentobarbital (Mebunat® 60 mg/ml) 75 mg/kg i.p. The left femoral vein was cannulated (PE-50) for slow drug injections. The left femoral artery was cannulated (PE-60) and the mean arterial blood pressure (MAP) and heart rate (HR) were recorded continuously via a Micro MP-15 transducer connected to a Grass Model 7D Polygraph. Arterial pressure was sampled at a rate 150 samples/second and recorded on a Pinus PC computer using the software program AcqKnowledge version 3.5.3 and a MP100A data acquisition unit for analog/digital conversion (BIOPAC Systems, Inc.). Pulse waves of the blood pressure were used for displaying heart rate continuously. The body temperature (rectal) was kept constant at 37±0.5° C. by warming with a lamp above the animal's chest. Only rats with MAP of 73 mmHg or higher were used for the tests. After a stabilizing period of 10-20 min, 3-(1H-imidazol-4-ylmethyl)-indan-5-ol (1 and 3 μg/kg, as hydrochloride) or dexmedetomidine (3 and 10 μg/kg, as hydrochlorides) dose was given as slow intravenous injection (during 5 min) by an infusion pump (Perfusor® ED 2, B. Braun). The total injection volume was adjusted to 1 ml in each experimental group.
# [1] = dose 3 μg/kg slow i.v. (during 5 min), time 0 min
# [2] = dose 3 μg/kg slow i.v. (during 5 min), time 3 min
# [3] = dose 3 μg/kg slow i.v. (during 5 min), time 5 min
# [4] = dose 3 μg/kg slow i.v. (during 5 min), time 10 min
# [5] = dose 3 μg/kg slow i.v. (during 5 min), time 20 min
# [6] = dose 3 μg/kg slow i.v. (during 5 min), time 30 min
# [7] = dose 10 μg/kg slow i.v. (during 5 min), time 0 min
# [8] = dose 10 μg/kg slow i.v. (during 5 min), time 2 min
# [9] = dose 10 μg/kg slow i.v. (during 5 min), time 5 min
# [10] = dose 10 μg/kg slow i.v. (during 5 min), time 10 min
# [11] = dose 10 μg/kg slow i.v. (during 5 min), time 20 min
# [12] = dose 10 μg/kg slow i.v. (during 5 min), time 30 min
# [13] = slow intravenous administration of 3 and 10 μg/kg
# [14] = dose 1 μg/kg slow i.v. (during 5 min), time 0 min
# [15] = dose 1 μg/kg slow i.v. (during 5 min), time 3 min
# [16] = dose 1 μg/kg slow i.v. (during 5 min), time 5 min
# [17] = dose 1 μg/kg slow i.v. (during 5 min), time 10 min
# [18] = dose 1 μg/kg slow i.v. (during 5 min), time 20 min
# [19] = dose 1 μg/kg slow i.v. (during 5 min), time 30 min
# [20] = slow (during 5 minutes) i.v. dosing of 1 and 3 μg/kg
structure (smiles),measurement,setting,value
"Cc1cccc([C@H](C)c2cnc[nH]2)c1C [Dexmedetomidine, dexmedetomidine]",HR (beats/min),[1],348 ± 12 beats/min
same,MAP (mmHg),[1],89 ± 5 mmHg
same,HR (beats/min),[2],310 ± 6 beats/min
same,MAP (mmHg),[2],86 ± 5 mmHg
same,HR (beats/min),[3],310 ± 5 beats/min
same,MAP (mmHg),[3],79 ± 7 mmHg
same,HR (beats/min),[4],308 ± 4 beats/min
same,MAP (mmHg),[4],61 ± 4 mmHg
same,HR (beats/min),[5],309 ± 5 beats/min
same,MAP (mmHg),[5],65 ± 2 mmHg
same,HR (beats/min),[6],309 ± 5 beats/min
same,MAP (mmHg),[6],67 ± 2 mmHg
same,HR (beats/min),[7],383 ± 11 beats/min
same,MAP (mmHg),[7],92 ± 2 mmHg
same,HR (beats/min),[8],308 ± 5 beats/min
same,MAP (mmHg),[8],94 ± 4 mmHg
same,HR (beats/min),[9],309 ± 3 beats/min
same,MAP (mmHg),[9],75 ± 6 mmHg
same,HR (beats/min),[10],303 ± 3 beats/min
same,MAP (mmHg),[10],59 ± 3 mmHg
same,HR (beats/min),[11],296 ± 7 beats/min
same,MAP (mmHg),[11],68 ± 2 mmHg
same,HR (beats/min),[12],297 ± 6 beats/min
same,MAP (mmHg),[12],73 ± 2 mmHg
same,maximal change in HR,[13],−21%
same,maximal change in MAP,[13],−37%
"Oc1ccc2c(c1)C(Cc1c[nH]cn1)CC2 (stereo not shown) [MPV-2426 Al, 3-(1H-imidazol-4-ylmethyl)-indan-5-ol]",HR (beats/min),[14],373 ± 8 beats/min
same,MAP (mmHg),[14],97 ± 4 mmHg
same,HR (beats/min),[15],324 ± 9 beats/min
same,MAP (mmHg),[15],114 ± 3 mmHg
same,HR (beats/min),[16],321 ± 9 beats/min
same,MAP (mmHg),[16],112 ± 3 mmHg
same,HR (beats/min),[17],327 ± 7 beats/min
same,MAP (mmHg),[17],83 ± 4 mmHg
same,HR (beats/min),[18],319 ± 9 beats/min
same,MAP (mmHg),[18],84 ± 4 mmHg
same,HR (beats/min),[19],317 ± 9 beats/min
same,MAP (mmHg),[19],80 ± 3 mmHg
same,HR (beats/min),[1],366 ± 11 beats/min
same,MAP (mmHg),[1],94 ± 5 mmHg
same,HR (beats/min),[2],309 ± 7 beats/min
same,MAP (mmHg),[2],123 ± 9 mmHg
same,HR (beats/min),[3],311 ± 4 beats/min
same,MAP (mmHg),[3],117 ± 12 mmHg
same,HR (beats/min),[4],321 ± 4 beats/min
same,MAP (mmHg),[4],88 ± 4 mmHg
same,HR (beats/min),[5],321 ± 6 beats/min
same,MAP (mmHg),[5],83 ± 5 mmHg
same,HR (beats/min),[6],305 ± 6 beats/min
same,MAP (mmHg),[6],77 ± 3 mmHg
same,maximal change in HR,[20],−19%
same,maximal change in MAP,[20],+31%
